The record followed here is patent US20050234125A1, “Alpha-sulfonylamino-acetonitriles” (priority 2002, published 2005).

One may read the melting point as the temperature of the solid-liquid transition. The compound `CC(C#N)(COc1ccc(Cl)cc1)NS(=O)(=O)Cc1ccccc1` (centres unmarked) had a melting point of 120 to 121 °C.

In turn, `CC(C#N)(COc1ccc(Cl)cc1)S(=O)(=O)Cc1ccc(Cl)cc1` (centres unmarked) came in with a melting point of 119 to 120 °C.
